Results on 2 compounds are retold here after patent US20240382629A1, “HETEROBIVALENT AND HOMOBIVALENT AGENTS TARGETING FIBROBLAST ACTIVATION PROTEIN ALPHA AND/OR PROSTATE-SPECIFIC MEMBRANE ANTIGEN” (The Johns Hopkins University, priority 2021, published 2024).

Molecules are shown by their SMILES.

The subject of the data set is U87 tumor. The experiment in a line: PET imaging and tissue biodistribution in U87 tumor-bearing mice. The conditions noted are these: untitled table, radiolabel and time not given; for Biodistribution: Bladder / Biodistribution: Blood / Biodistribution: Bone / Biodistribution: Fat / Biodistribution: Heart / Biodistribution: Kidney / Biodistribution: Lacrim Gland / Biodistribution: Liver / Biodistribution: Lung / Biodistribution: Muscle / Biodistribution: Pancreas / Biodistribution: Sm Intest / Biodistribution: Spleen / Biodistribution: Stomach / Biodistribution: U87: in %ID/g. On the set-up: Biodistribution: Saliv. Gland: unit not given here. Format: in vivo, mouse. The method, then:
Cell uptake assays, flow cytometry, and IHC were performed as described previously. Banerjee et al., 2019; Nimmagadda et al., 2018. PET imaging and biodistribution Sequential PET imaging and biodistribution studies were conducted to quantify and validate PET imaging data. Briefly, tumor-bearing mice were administrated approximately 7.4 MBq of radiotracer in 150 μL saline via tail-vein injection. They were randomized into the indicated groups of 3-4 mice before radiotracer injection.
In Experiment 1, bilateral xenografts of U87 (right flank) and PSMA+ PC3 PIP (left flank) tumors were established in male NSG mice (n=3), which underwent imaging followed by biodistribution over 24 h. […] A biodistribution study was further conducted with U87 tumors at 2 h post-injection (n=3) to compare the tissue distribution properties of ^64Cu-FP-L1 and ^64Cu-FAPI-04.

As for `N#C[C@@H]1CCCN1C(=O)CNC(=O)c1ccnc2ccc(OCCCNC(=O)CCOCCOCCOCCNC(=O)C(CCNC(=O)c3ccc(F)nc3)NC(=O)CN3CCN(CC(=O)O)CCN(CC(=O)O)CCN(CC(=O)O)CC3)cc12` (some centres unmarked) [SRI-08-27], the “Biodistribution: Saliv. Gland” value is 6.40 ± 1.30, the “Biodistribution: Bladder” value is reported as 1.18 ± 0.13, the “Biodistribution: Blood” value turned out to be 12.65 ± 2.31 and the “Biodistribution: Bone” value stood at 2.83 ± 0.36. In addition, the “Biodistribution: Fat” value is reported as 0.45 ± 0.16, the “Biodistribution: Heart” value is given as 5.39 ± 1.11, the “Biodistribution: Kidney” value amounted to 3.98 ± 0.66 and the “Biodistribution: Lacrim Gland” value turned out to be 4.62 ± 1.02. The “Biodistribution: Liver” value was determined as 5.15 ± 0.75, the “Biodistribution: Lung” value turned out to be 7.76 ± 1.31, the “Biodistribution: Muscle” value was 1.55 ± 0.43 and the “Biodistribution: Pancreas” value is listed as 7.20 ± 3.00. The “Biodistribution: Sm Intest” value is given as 6.28 ± 2.63, the “Biodistribution: Spleen” value is 2.59 ± 0.49, the “Biodistribution: Stomach” value is given as 1.83 ± 0.66 and the “Biodistribution: U87” value came out at 6.56 ± 1.76.
For the compound `N#C[C@@H]1CCCN1C(=O)CNC(=O)c1ccnc2ccc(OCCCNC(=O)C(CCNC(=O)c3ccc(F)nc3)NC(=O)CN3CCN(CC(=O)O)CCN(CC(=O)O)CCN(CC(=O)O)CC3)cc12` (some centres unmarked) [SRI-08-15], the “Biodistribution: Saliv. Gland” value worked out at 8.95 ± 0.98, the “Biodistribution: Bladder” value came to 1.67 ± 0.32, the “Biodistribution: Blood” value worked out at 3.92 ± 0.39 and the “Biodistribution: Bone” value turned out to be 5.97 ± 1.02. Moreover, the “Biodistribution: Fat” value worked out at 0.92 ± 0.21, the “Biodistribution: Heart” value turned out to be 1.97 ± 0.34, the “Biodistribution: Kidney” value came to 2.65 ± 0.27 and the “Biodistribution: Lacrim Gland” value was 8.01 ± 1.01. In addition, the “Biodistribution: Liver” value stood at 2.73 ± 0.64, the “Biodistribution: Lung” value is on record as 2.90 ± 0.24, the “Biodistribution: Muscle” value is on record as 3.03 ± 0.63 and the “Biodistribution: Pancreas” value was determined as 7.33 ± 1.73. Moreover, the “Biodistribution: Sm Intest” value is on record as 3.85 ± 0.77, the “Biodistribution: Spleen” value is given as 1.59 ± 0.57, the “Biodistribution: Stomach” value was 1.42 ± 0.56 and the “Biodistribution: U87” value is recorded as 20.41 ± 3.28.
